“Also recorded” adds a separate entry of the source.
Tests used:
Wistar rats [1] = experiment: Hepatobiliary injury markers and histology in rBDL rats before and after PHx (Example 6); assay type: in vivo, rat
Method: (§1) At baseline (i.e., directly before PHx) and one to five days after PHx, animals were euthanized under isoflurane anesthesia by exsanguination. Blood samples were collected from the caval vein in heparin-anticoagulated vacutainers (BD, Franklin Lakes, N.J.) and centrifuged for 10 min (3000×g, 4° C.). In rBDL animals sacrificed at baseline, bile was aspirated with a syringe from the dilated extrahepatic bile duct, weighed, and stored at −80° C. The liver and ileum were excised, weighed, loafed, and either fixed in a 10% (vol/vol) neutralized formalin solution (J. T. Baker, Center Valley, Pa.), snap-frozen in liquid nitrogen and stored at −80° C., or collected in RNAlater (Qiagen, Venlo, the Netherlands) and stored at −20° C. Liver regrowth was calculated from the regenerated liver mass, and was expressed as percentage of total liver mass prior to PHx. The projected remnant liver mass was calculated using the weight of the resected liver segments, which represent 70% of the total liver mass. Dry liver weights were measured to correct for hepatic water content [Kloek 2010a].
After formalin fixation, liver specimens were dehydrated, paraffin-embedded, and stained with hematoxylin and eosin (H&E), the collagen type I and III stain picrosirius red, or the proliferation marker Ki67 [Marsman 2013]. Semi-quantitative analysis of H&E- and picrosirius red-stained liver histology was performed by an experienced hepatopathologist (JV) blinded to the experimental groups using a scoring system detailed in Table 1. Ki67-positive hepatocyte nuclei were manually counted by two observers (RFG and PBO) in four randomly-selected microscopic fields at 200× magnification.

Fxr = experiment: qRT-PCR of proliferation-, Fxr- and bile acid homeostasis-related genes in liver and ileum of rBDL rats (Example 6); assay type: in vivo, rat
Method: Transcriptional analysis was performed [Olthof 2015]. Liver samples were homogenized with a MagNA Lyser and total RNA was extracted with the High Pure RNA Tissue Kit (both from Roche Applied Sciences, Penzberg, Germany). One μg of RNA was reverse transcribed to cDNA using the SensiFAST cDNA Synthesis Kit (Bioline, London, UK) according to manufacturer's instructions. Quantitative reverse transcriptase polymerase chain reaction was performed on a LightCycler 480 (Roche, Basel, Switzerland) using SensiFAST SYBR No-ROX mix (Bioline). Fluorescence data was processed and analyzed and normalized to hypoxanthine-guanine phosphoribosyltransferase (Hprt) for ileum samples, and the geometric mean of ubiquitin C (Ubc) and beta-2-microglobulin (B2m) for liver samples. […] Primers were designed using NCBI Primer Blast (http://www.ncbi.nlm.nih.gov/tools/primer-blast/) to span an intron or exon-exon junction and prevent amplification of residual genomic DNA (Table 2). Melting curve analysis and agarose gel electrophoresis were used to validate primer specificity.

Adult female rabbits = experiment: PVE in rabbits: CLV and bile salts (Example 5a); assay type: in vivo, rabbit; conditions: day 3 after PVE
Method: Adult female rabbits received vehicle or the FXR agonist obeticholic acid (OCA; 10 mg/kg, daily oral gavage) for 7 days prior to, and after embolization (day 0) of the cranial liver lobes. Effectiveness of PVE was confirmed by portography, and caudal liver volume (CLV) was analyzed by CT-volumetric analysis at days −7, −1, +3 and +7. Rabbits were sacrificed at day +3 and +7 (n=5-6 per group).

[2] = system: New Zealand White rabbits; experiment: PVE-induced liver growth in rabbits, CT volumetry and body weight (Example 5)
Method: PVE of the cranial liver lobes was performed using polyvinyl alcohol particles and coils at day 0. Caudal liver volume (CLV) was analyzed by CT volumetry at days −7, −1, +3 and +7. Liver function (i.e. mebrofenin uptake) was quantified in subgroups of animals using hepatobiliary scintigraphy. Additional parameters analyzed were plasma transaminase levels, histological scoring of H&E- and Ki67-stained liver sections, and FXR target gene expression.
Six groups of six rabbits were planned for PVE. […] Treatment was started 7 days before PVE, and continued until sacrifice at 3 or 7 days after PVE.
Under digital subtraction portography a Renegade 3F microcatheter (Boston Scientific, Natick, Mass.) with a Transend-ex 0.36 mm×182-cm guide wire (Boston Scientific) was positioned in the main portal branch to the cranial liver lobes. Polyvinyl alcohol particles (90-180 μm and 300-500 μm in diameter, Cook, Bloomington, Ind.) and 2 fibered platinum coils (4.0 and 6.0 mm; Boston Scientific) were infused through the catheter to occlude the portal branches to the cranial lobes. PVE was confirmed by portography, and the mesenteric vein was closed using a ligature. The abdomen was closed in two layers. Baytril was administered daily for 3 days following PVE.
Multiphase CT-scans (Brilliance 64, Philips, Eindhoven, The Netherlands) were performed at day −7, −1, +3, and +7. Animals (n=18 per treatment group) were anesthetized and a 22G catheter was placed in the lateral ear vein. A baseline scan was made and 3 mL of contrast solution (Visipaque, GE Healthcara, Waukesha, Wis.) was injected. Arterial, portal and venous phase scans were made after 15, 30, 45 seconds respectively. Volumetric analysis was performed on 3D reconstruction of 5-mm axial slices using manual delineation. Caudal liver volume (CLV) and total liver volume (TLV) were determined and increase in CLV was determined using the following formula:
The same formula was used to calculate the decrease in cranial liver volume (CrLV; CrLV=TLV−CLV). Increase in CLV and decrease in CrLV was calculated using day −1 values as baseline. […] Regeneration rate was calculated using the formula:

Wistar rats [3] = experiment: Bile volume and HPLC bile acid analysis in rBDL rats prior to PHx (Example 6); assay type: in vivo, rat
Method: as §1
Bile acids were separated and quantified by reverse-phase high-performance liquid chromatography (HPLC) [Lionarons 2016]. Bile or plasma samples (20 μL) were deproteinated by the addition of 5 volumes of acetonitrile. Following centrifugation (10 min at 20,000×g), solvent was evaporated from supernatants and bile salts were solubilized in 200 μL of 25% methanol. For liver homogenates, 100 mg liver tissue was sonicated for 30-90 s in 500 μL of water. One mL of acetonitrile was added for protein precipitation. Samples were subsequently centrifuged at 20,000×g for 10 min, after which the supernatant was used for analysis. Results were corrected for homogenate protein content. One hundred μL of sample was applied to a Hypersil C18 HPLC column (Thermo Scientific, Waltham, Mass.) operated at 20° C. […] Detection was done using a Nano Quantity Analyte Detector QT-500 (Quant Technologies, Blaine, Minn.). Bile acids were quantified using a separate calibration curve per species. […]

[4] = prior to PHx, vs control and untreated rBDL
[5] = prior to PHx, vs untreated rBDL
[6] = after seven days of OCA treatment

CC[C@H]1[C@@H](O)[C@@H]2[C@H](CC[C@]3(C)[C@@H]([C@H](C)CCC(=O)O)CC[C@@H]23)[C@@]2(C)CC[C@@H](O)C[C@@H]12 [Compound 1, 3α,7α-dihydroxy-6α-ethyl-5β-cholanic acid]
bilirubin clearance (Wistar rats [1]; after PHx): lagged marginally | decline of ALP levels (Wistar rats [1]; after PHx): ~4 fold | time to normalization of hepatobiliary injury markers (Wistar rats [1]; after PHx, rBDL groups, recovery more gradual with OCA): ≤ 48 h | ALP levels vs other study arms (Wistar rats [1]; during regeneration): remained higher | liver injury after hepatectomy (Wistar rats [1]; histology day 5 after PHx): did not exacerbate liver injury after hepatectomy | plasma gamma glutamyltransferase (Wistar rats [1]; prior to PHx): followed the same dynamics as ALP | plasma alanine aminotransferase (ALT) (Wistar rats [1]; [4]): considerably higher | plasma alkaline phosphatase (ALP) (Wistar rats [1]; [4]): considerably higher | hepatic Bsep expression, upregulation (Fxr; baseline): ~8 fold | hepatic Mrp4 expression (Fxr; baseline): upregulated | hepatic Ntcp expression (Fxr; baseline): mildly upregulated | hepatic Ostβ expression (Fxr; baseline): upregulated | hepatocyte Cyp7a1 mRNA level (Fxr; baseline): did not alter | hepatocyte Shp mRNA level (Fxr; baseline): did not alter | hepatic Mrp3 expression (Fxr; baseline, vs untreated rBDL): more robust induction | liver Fxr mRNA (Fxr; day 1 post-PHx): slight decrease | hepatic Foxm1 expression (Fxr; during liver regeneration after PHx): did not change | hepatic Shp transcript levels relative to untreated rBDL and control rats (Fxr; first two days after PHx): high transcript levels | hepatic Fgfr4 transcript level (Fxr; prior to / on the day of PHx, listed as OCA): markedly downregulated | hepatic Stat3 expression (Fxr; prior to PHx): considerably upregulated | ileal Fxr expression (Fxr; prior to PHx): minor downregulation | ileal Shp expression (Fxr; prior to PHx): marked upregulation | ileal Fgf15 transcription, upregulation (Fxr; prior to PHx, rBDL rats): ~20 fold | hepatic expression of Foxm1 (Fxr; [5]): comparable | hepatic expression of Fxr (Fxr; [5]): comparable | hepatic expression of Ccnd1 (CyclinD1) (Fxr; prior to PHx, vs untreated rBDL or non-cholestatic animals): more pronounced | hepatic Fgfr4 expression (Fxr; regrowth phase after PHx): remained low | increase in CLV (Adult female rabbits): 59.3±19.2% | increase of CLV relative to vehicle controls ([2]; 3 days after PVE): 2.2 fold | increase in caudal liver volume (CLV) ([2]; 3 days after PVE, relative to day −1, N=17): 56.1±20.3% | increase of CLV relative to vehicle controls ([2]; day 7 after PVE): 1.5 fold | increase in caudal liver volume (CLV) ([2]; day 7 after PVE, relative to day −1, N=11): 102.0±38.2% | total liver volume (TLV) corrected for body weight ([2]; pre-treatment period day −7 until day −1, 10 mg/kg daily oral): did not induce spontaneous liver growth | body weight decrease after PVE ([2]; vs vehicle): to a similar extent | bile retrieved from the extrahepatic bile duct (Wistar rats [3]; [6]): substantial increase | biliary BA output (Wistar rats [3]; [6]): elevated | hepatic BA load / content (Wistar rats [3]; prior to PHx, rBDL, listed as OCA): reduction; also recorded: effectively counteracted

Source: patent US10548906B2, “Methods of promoting hepatic regeneration” (Intercept Pharmaceuticals, Inc., priority 2015, dated 2020)
